Assay results from patent publication US20100179093A1, “Neoropeptide-2-Receptor (Y-2R) Agonists” (priority 2008, published 2010).

What was measured:
Assay type in all cases: cell-based
Y1R = biological target: T1, Y1R (Homo sapiens, UniProt P25929); test: CaFlux Assay (FLIPR), Y1R
T1 sequence (P25929 1-384): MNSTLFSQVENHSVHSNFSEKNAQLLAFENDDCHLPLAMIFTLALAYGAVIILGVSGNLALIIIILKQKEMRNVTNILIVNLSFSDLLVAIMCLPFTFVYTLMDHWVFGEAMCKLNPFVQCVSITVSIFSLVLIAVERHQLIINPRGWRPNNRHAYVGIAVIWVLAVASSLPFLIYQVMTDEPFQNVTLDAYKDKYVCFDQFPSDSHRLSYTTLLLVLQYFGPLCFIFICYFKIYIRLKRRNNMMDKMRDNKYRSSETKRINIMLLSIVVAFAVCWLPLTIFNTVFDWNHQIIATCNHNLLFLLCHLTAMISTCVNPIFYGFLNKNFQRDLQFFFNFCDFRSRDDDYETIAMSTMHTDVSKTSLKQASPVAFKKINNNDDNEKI

hNPY2R [1] = biological target: T2, hNPY2R (Homo sapiens, UniProt P49146); test: cAMP Agonist Assay, HEK293/hNPY2R cells; design: expressed in transfected cells; host or cells: HEK293/hNPY2R (G418 selection)
T2 sequence (P49146 1-381): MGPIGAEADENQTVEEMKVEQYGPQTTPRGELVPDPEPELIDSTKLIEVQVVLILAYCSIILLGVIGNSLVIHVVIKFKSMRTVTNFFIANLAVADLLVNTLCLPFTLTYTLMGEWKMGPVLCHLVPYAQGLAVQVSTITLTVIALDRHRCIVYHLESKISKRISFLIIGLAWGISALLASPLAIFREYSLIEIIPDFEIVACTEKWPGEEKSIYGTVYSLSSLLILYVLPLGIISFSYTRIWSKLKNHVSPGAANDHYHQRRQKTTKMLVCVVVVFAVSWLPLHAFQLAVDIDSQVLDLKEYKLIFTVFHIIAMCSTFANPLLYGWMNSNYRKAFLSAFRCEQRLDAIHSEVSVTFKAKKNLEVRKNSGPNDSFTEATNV
Experimental: On the first day, medium was discarded, and the monolayer cells were washed with 10 mL PBS per flask (T225). […] The flask was gently tapped and the cell suspension was pooled. Each flask was rinsed with 10 mL plating medium and centrifuged at 1000 rpm for 5 min. The suspension was pooled and counted. The suspension was resuspended in plating medium at a density of 2.0×10^5 cells/mL for HEK293/hNPY2R. 50 microliters of cells (HEK293/hNPY2R-10,000 cells/well) were transferred into the 384-well plate using Multi-drop dispenser. The plates were incubated at 37° C. overnight. […] The media and reagents were allowed to come to room temperature. Before the dilutions were prepared, the stock solution of stimulating compound in dimethyl sulphoxide (DMSO, Sigma, cat #D2650) was allowed to warm up to 32 C for 5-10 min. […] The cell medium was tapped off with a gentle inversion of the cell plate on a paper towel. 50 μL of stimulation medium was placed per well (each concentration done in four replicates). The plates were incubated at room temperature for 30 min, and the cells were checked under a microscope for toxicity. After 30 minutes of treatment, the stimulation media was discarded and 50 mL/well of Assay Lysis Buffer (provided in the Tropix kit) was added. The plates were incubated for 45 min@37° C. 20 μL of the lysate was transferred from stimulation plates into the pre-coated antibody plates (384-well) from the Tropix kit. 10 μL of AP conjugate and 20 μL of anti-cAMP antibody was added. The plates were incubated at room temperature while shaking for 1 hour. The plates were then washed 5 times with Wash Buffer, 70 μL per well for each wash. The plates were tapped to dry. 30 μL/well of CSPD/Saphire-II RTU substrate/enhancer solution was added and incubated for 45 min @ RT (shake). Signal for 1 sec/well in a Luminometer.

hNPY2R [2] = biological target: T2, hNPY2R; test: CaFlux Assay (FLIPR), Y2R; design: expressed in transfected cells; host or cells: HEK-293 stably expressing G protein chimera Gaqi9
Y5R = biological target: T3, Y5R (Homo sapiens, UniProt Q15761); test: CaFlux Assay (FLIPR), Y5R; conditions: for Emax: read-out: Y5R FLIPR, percentage in parentheses under the EC50;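 on Emax: percent of the maximal response of the positive control agonist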
T3 sequence (Q15761 1-445): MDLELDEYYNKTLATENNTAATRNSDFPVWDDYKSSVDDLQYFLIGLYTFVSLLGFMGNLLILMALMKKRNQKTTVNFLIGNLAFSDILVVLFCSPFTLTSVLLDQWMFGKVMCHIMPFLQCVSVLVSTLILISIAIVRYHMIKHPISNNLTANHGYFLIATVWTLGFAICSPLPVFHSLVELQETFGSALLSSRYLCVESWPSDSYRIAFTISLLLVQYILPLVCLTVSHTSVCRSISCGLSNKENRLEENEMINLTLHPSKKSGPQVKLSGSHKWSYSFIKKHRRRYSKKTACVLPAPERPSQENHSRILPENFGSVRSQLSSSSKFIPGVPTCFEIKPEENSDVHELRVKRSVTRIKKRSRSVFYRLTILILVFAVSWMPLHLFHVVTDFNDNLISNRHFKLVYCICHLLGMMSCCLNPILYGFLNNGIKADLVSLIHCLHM

Y4R = Y4R (Homo sapiens, UniProt P50391); test: CaFlux Assay (FLIPR), Y4R
Chain of Y4R (P50391 whole entry): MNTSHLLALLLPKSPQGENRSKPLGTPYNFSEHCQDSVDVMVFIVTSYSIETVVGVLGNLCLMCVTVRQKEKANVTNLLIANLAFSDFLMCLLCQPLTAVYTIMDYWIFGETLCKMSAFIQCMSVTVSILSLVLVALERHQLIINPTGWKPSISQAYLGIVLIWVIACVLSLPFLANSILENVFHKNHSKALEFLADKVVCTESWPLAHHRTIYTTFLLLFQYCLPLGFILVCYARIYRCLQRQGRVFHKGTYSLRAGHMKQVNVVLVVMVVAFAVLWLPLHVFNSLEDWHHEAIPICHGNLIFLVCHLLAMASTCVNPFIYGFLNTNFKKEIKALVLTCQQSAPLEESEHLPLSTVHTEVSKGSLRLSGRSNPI

CCCCCCCCCCCCCCCC(=O)NCCC(=O)N[C@@H](CCC(=O)NCCCC[C@H](NC(=O)[C@@H](N)[C@@H](C)CC)C(=O)N1CCN(c2ccc3ncn(CC(=O)N[C@@H](CCCNC(=N)N)C(=O)N[C@@H](Cc4c[nH]cn4)C(=O)N[C@@H](Cc4ccc(O)cc4)C(=O)N[C@@H](CC(C)C)C(=O)N[C@@H](CC(N)=O)C(=O)N[C@@H](Cc4c[nH]c5ccccc45)C(=O)N[C@H](C(=O)N[C@H](C(=O)N[C@@H](CCCNC(=N)N)C(=O)N[C@@H](CCC(N)=O)C(=O)N(C)[C@@H](CCCNC(=N)N)C(=O)N[C@@H](Cc4ccc(O)cc4)C(N)=O)[C@@H](C)O)C(C)C)c(=O)c3c2)CC1)C(=O)O [Example 26]
EC50 (Y1R): > 5000 nM
EC50 (hNPY2R [1]): 0.15 nM
EC50 (hNPY2R [2]): 0.045 nM
EC50 (Y5R): 129 nM
Emax (Y5R): 70%
EC50 (Y4R): > 5000 nM

CC[C@H](C)[C@H](N)C(=O)N[C@@H](CCCCNC(=O)CC[C@H](NC(=O)CC[C@H](NC(=O)CCCCCCCCCCCCCCCBr)C(=O)O)C(=O)O)C(=O)N1CCN(c2ccc3ncn(CC(=O)N[C@@H](CCCNC(=N)N)C(=O)N[C@@H](Cc4c[nH]cn4)C(=O)N[C@@H](Cc4ccc(O)cc4)C(=O)N[C@@H](CC(C)C)C(=O)N[C@@H](CC(N)=O)C(=O)N[C@@H](Cc4c[nH]c5ccccc45)C(=O)N[C@H](C(=O)N[C@H](C(=O)N[C@@H](CCCNC(=N)N)C(=O)N[C@@H](CCC(N)=O)C(=O)N(C)[C@@H](CCCNC(=N)N)C(=O)N[C@@H](Cc4ccc(O)cc4)C(N)=O)[C@@H](C)O)C(C)C)c(=O)c3c2)CC1 [Example 27]
EC50 (Y1R): > 5000 nM
EC50 (hNPY2R [1]): 0.4 nM
EC50 (hNPY2R [2]): 0.23 nM
EC50 (Y5R): 2540 nM
EC50 (Y4R): > 5000 nM

CCCCCCCCCCCCCCCC(=O)N[C@@H](CCC(=O)N[C@@H](CCC(=O)NCCCC[C@H](NC(=O)[C@@H](NC(=O)[C@@H]1CCC(=O)N1)[C@@H](C)CC)C(=O)N1CCN(c2ccc3ncn(CC(=O)N[C@@H](CCCNC(=N)N)C(=O)N[C@@H](Cc4c[nH]cn4)C(=O)N[C@@H](Cc4ccc(O)cc4)C(=O)N[C@@H](CC(C)C)C(=O)N[C@@H](CC(N)=O)C(=O)N[C@@H](Cc4c[nH]c5ccccc45)C(=O)N[C@H](C(=O)N[C@H](C(=O)N[C@@H](CCCNC(=N)N)C(=O)N[C@@H](CCC(N)=O)C(=O)N(C)[C@@H](CCCNC(=N)N)C(=O)N[C@@H](Cc4ccc(O)cc4)C(N)=O)[C@@H](C)O)C(C)C)c(=O)c3c2)CC1)C(=O)O)C(=O)O [Example 28]
EC50 (Y1R): > 5000 nM
EC50 (hNPY2R [1]): 0.21 nM
EC50 (hNPY2R [2]): 0.176 nM
EC50 (Y5R): 2060 nM
EC50 (Y4R): > 5000 nM

CCCCCCCCCCCCCCCCCCCC(=O)NCCCCCC(=O)NCCCC[C@H](NC(=O)[C@@H](N)[C@@H](C)CC)C(=O)N1CCN(c2ccc3ncn(CC(=O)N[C@@H](CCCNC(=N)N)C(=O)N[C@@H](Cc4c[nH]cn4)C(=O)N[C@@H](Cc4ccc(O)cc4)C(=O)N[C@@H](CC(C)C)C(=O)N[C@@H](CC(N)=O)C(=O)N[C@@H](Cc4c[nH]c5ccccc45)C(=O)N[C@H](C(=O)N[C@H](C(=O)N[C@@H](CCCNC(=N)N)C(=O)N[C@@H](CCC(N)=O)C(=O)N(C)[C@@H](CCCNC(=N)N)C(=O)N[C@@H](Cc4ccc(O)cc4)C(N)=O)[C@@H](C)O)C(C)C)c(=O)c3c2)CC1 [Example 30]
EC50 (Y1R): > 5000 nM
EC50 (hNPY2R [1]): 0.14 nM
EC50 (hNPY2R [2]): 0.96 nM
EC50 (Y5R): 306 nM
Emax (Y5R): 28%
EC50 (Y4R): > 5000 nM

CCCCCCCCCCCCCCCCCCCC(=O)N[C@@H](CCC(=O)N[C@@H](CCC(=O)NCCCC[C@H](NC(=O)[C@@H](N)[C@@H](C)CC)C(=O)N1CCN(c2ccc3ncn(CC(=O)N[C@@H](CCCNC(=N)N)C(=O)N[C@@H](Cc4c[nH]cn4)C(=O)N[C@@H](Cc4ccc(O)cc4)C(=O)N[C@@H](CC(C)C)C(=O)N[C@@H](CC(N)=O)C(=O)N[C@@H](Cc4c[nH]c5ccccc45)C(=O)N[C@H](C(=O)N[C@H](C(=O)N[C@@H](CCCNC(=N)N)C(=O)N[C@@H](CCC(N)=O)C(=O)N(C)[C@@H](CCCNC(=N)N)C(=O)N[C@@H](Cc4ccc(O)cc4)C(N)=O)[C@@H](C)O)C(C)C)c(=O)c3c2)CC1)C(=O)O)C(=O)O [Example 31]
EC50 (Y1R): > 5000 nM
EC50 (hNPY2R [1]): 0.07 nM
EC50 (hNPY2R [2]): 0.091 nM
EC50 (Y5R): 634 nM
Emax (Y5R): 60%
EC50 (Y4R): > 5000 nM

CCCCCCCCCCCCCCCC(=O)NCCOCCOCCOCCOCCC(=O)NCCCC[C@H](NC(=O)[C@@H](N)[C@@H](C)CC)C(=O)N1CCN(c2ccc3ncn(CC(=O)N[C@@H](CCCNC(=N)N)C(=O)N[C@@H](Cc4c[nH]cn4)C(=O)N[C@@H](Cc4ccc(O)cc4)C(=O)N[C@@H](CC(C)C)C(=O)N[C@@H](CC(N)=O)C(=O)N[C@@H](Cc4c[nH]c5ccccc45)C(=O)N[C@H](C(=O)N[C@H](C(=O)N[C@@H](CCCNC(=N)N)C(=O)N[C@@H](CCC(N)=O)C(=O)N(C)[C@@H](CCCNC(=N)N)C(=O)N[C@@H](Cc4ccc(O)cc4)C(N)=O)[C@@H](C)O)C(C)C)c(=O)c3c2)CC1 [Example 32]
EC50 (Y1R): > 5000 nM
EC50 (hNPY2R [1]): 0.19 nM
EC50 (hNPY2R [2]): 0.26 nM
EC50 (Y5R): 973 nM
Emax (Y5R): 28%
EC50 (Y4R): > 5000 nM

CCCCCCCCCCCCCCCCCCCC(=O)NCCOCCOCCOCCOCCC(=O)NCCCC[C@H](NC(=O)[C@@H](N)[C@@H](C)CC)C(=O)N1CCN(c2ccc3ncn(CC(=O)N[C@@H](CCCNC(=N)N)C(=O)N[C@@H](Cc4c[nH]cn4)C(=O)N[C@@H](Cc4ccc(O)cc4)C(=O)N[C@@H](CC(C)C)C(=O)N[C@@H](CC(N)=O)C(=O)N[C@@H](Cc4c[nH]c5ccccc45)C(=O)N[C@H](C(=O)N[C@H](C(=O)N[C@@H](CCCNC(=N)N)C(=O)N[C@@H](CCC(N)=O)C(=O)N(C)[C@@H](CCCNC(=N)N)C(=O)N[C@@H](Cc4ccc(O)cc4)C(N)=O)[C@@H](C)O)C(C)C)c(=O)c3c2)CC1 [Example 33]
EC50 (Y1R): > 5000 nM
EC50 (hNPY2R [1]): 0.13 nM
EC50 (hNPY2R [2]): 1.08 nM
EC50 (Y5R): 241 nM
Emax (Y5R): 53%
EC50 (Y4R): > 5000 nM

CCCCCCCCCCCCCCCC(=O)NCCOCCOCCOCCC(=O)NCCCC[C@H](NC(=O)[C@@H](N)[C@@H](C)CC)C(=O)N1CCN(c2ccc3ncn(CC(=O)N[C@@H](CCCNC(=N)N)C(=O)N[C@@H](Cc4c[nH]cn4)C(=O)N[C@@H](Cc4ccc(O)cc4)C(=O)N[C@@H](CC(C)C)C(=O)N[C@@H](CC(N)=O)C(=O)N[C@@H](Cc4c[nH]c5ccccc45)C(=O)N[C@H](C(=O)N[C@H](C(=O)N[C@@H](CCCNC(=N)N)C(=O)N[C@@H](CCC(N)=O)C(=O)N(C)[C@@H](CCCNC(=N)N)C(=O)N[C@@H](Cc4ccc(O)cc4)C(N)=O)[C@@H](C)O)C(C)C)c(=O)c3c2)CC1 [Example 34]
EC50 (Y1R): > 5000 nM
EC50 (hNPY2R [1]): 0.1 nM
EC50 (hNPY2R [2]): 0.003 nM
EC50 (Y5R): 2340 nM
Emax (Y5R): 80%
EC50 (Y4R): > 5000 nM

CCCCCCCCCCCCCCCCCCCC(=O)NCCOCCOCCOCCC(=O)NCCCC[C@H](NC(=O)[C@@H](N)[C@@H](C)CC)C(=O)N1CCN(c2ccc3ncn(CC(=O)N[C@@H](CCCNC(=N)N)C(=O)N[C@@H](Cc4c[nH]cn4)C(=O)N[C@@H](Cc4ccc(O)cc4)C(=O)N[C@@H](CC(C)C)C(=O)N[C@@H](CC(N)=O)C(=O)N[C@@H](Cc4c[nH]c5ccccc45)C(=O)N[C@H](C(=O)N[C@H](C(=O)N[C@@H](CCCNC(=N)N)C(=O)N[C@@H](CCC(N)=O)C(=O)N(C)[C@@H](CCCNC(=N)N)C(=O)N[C@@H](Cc4ccc(O)cc4)C(N)=O)[C@@H](C)O)C(C)C)c(=O)c3c2)CC1 [Example 35]
EC50 (Y1R): > 5000 nM
EC50 (hNPY2R [1]): 0.11 nM
EC50 (hNPY2R [2]): 1.02 nM
EC50 (Y5R): 501 nM
Emax (Y5R): 65%
EC50 (Y4R): > 5000 nM
